Earlier results as cited in paper PMC6582641 (Organic & biomolecular chemistry, 2019).

What was measured:
TRPC5 = conditions: read-out: IC50 towards TRPC5
TRPC4 = conditions: read-out: IC50 TRPC4

Cn1c(=O)n(CCCO)c(=O)c2c1nc(Oc1cccc(OC(F)(F)F)c1)n2Cc1ccc(Cl)cc1 [HC608, 7-(4-Chlorobenzyl)-1-(3-Hydroxypropyl)-3-Methyl-8-(3-(Trifluoromethoxy)Phenoxy)-3,7-Dihydro-1H-Purine-2,6-Dione]
IC50 (TRPC5): 6.2 nM
IC50 (TRPC4): 32.5 nM
binding activity toward TRPC3 (TRPC3): no binding activities
binding activity toward TRPC6 (TRPC6): no binding activities
binding activity toward TRPV1 (TRPV (vanilloid) 1): no binding activities
binding activity toward TRPV4 (TRPV (vanilloid) 4): no binding activities
binding activity toward TRPA1 (TRPA (ankyrin) 1): no binding activities
binding activity toward TRPM2 (TRPM (melastatin) 2): no binding activities
binding activity toward TRPM8 (TRPM (melastatin) 8): no binding activities

Cn1c(=O)n(CCCO)c(=O)c2c1nc(Oc1cccc(Cl)c1)n2Cc1ccc(Cl)cc1 [HC070, 7-(4-Chlorobenzyl)-8-(3-Chlorophenoxy)-1-(3-Hydroxypropyl)-3-Methyl-3,7-Dihydro-1H-Purine-2,6-Dione]
anxiolytic and antidepressant effects (mice): produces anxiolytic and antidepressant effects in mice
